This is an account of results in patent US6277825A (priority 1999, dated 2001).

pIC50: −log10 of the molar value. Where a SMILES comes first, the peptide text is derived from it. Where no end group is shown, it is not given here. [ ]: non-standard residue; d: D form. Gla = N[C@@H](CC(C(=O)O)C(=O)O)C(=O)O Where only a bound is given, the exact number is not on record here.

One data set concerns NMDA receptor. In kind it is binding.
Settings: not given
Turning to “(A^7,10,14)3-17: A^7,10,14 Con G with residues 1-2 deleted (EELQANQALIRAKSN; ends and bridges not checked; UniProt P07231 81-97, looked up, variant E7A E10A E14A del1-2)”, the IC50 entry is “inactive”.
On to “(A^7,10,14)4-17: A^7,10,14 Con G with residues 1-3 deleted (ELQANQALIRAKSN; ends and bridges not checked; UniProt P07231 81-97, looked up, variant E7A E10A E14A del1-3)”, for which the IC50 result is “inactive”.
For the molecule “(A^7,10,14)6-17: A^7,10,14 Con G with residues 1-5 deleted (QANQALIRAKSN; ends and bridges not checked; UniProt P07231 81-97, looked up, variant E7A E10A E14A del1-5)”, the IC50 result is “inactive”.
As to “(A^7,10,14)2-17: A^7,10,14 Con G with residue 1 deleted (EEELQANQALIRAKSN; ends and bridges not checked; UniProt P07231 81-97, looked up, variant E7A E10A E14A G1*)”, the IC50 entry is “inactive”.
As to “(A^7,10,14)5-17: A^7,10,14 Con G with residues 1-4 deleted (LQANQALIRAKSN; ends and bridges not checked; UniProt P07231 81-97, looked up, variant E7A E10A E14A del1-4)”, the IC50 entry was “inactive”.

The data set is the same for the next values; noted with them: read-out: IC50.
Regarding `CC[C@H](C)[C@H](NC(=O)[C@H](CC(C)C)NC(=O)[C@H](C)NC(=O)[C@H](CCC(N)=O)NC(=O)[C@H](CC(N)=O)NC(=O)[C@H](C)NC(=O)[C@H](CCC(N)=O)NC(=O)[C@H](CC(C)C)NC(=O)[C@H](CC(C(=O)O)C(=O)O)NC(=O)[C@H](CC(C(=O)O)C(=O)O)NC(=O)[C@H](CCC(=O)O)NC(=O)CN)C(N)=O` [(A^7,10)1-12] (H-GE[Gla][Gla]LQANQALI-NH2; N-terminus assumed), the negative-log IC50 (pIC50) was 6.52.
For `CC[C@H](C)[C@H](NC(=O)[C@H](CC(C)C)NC(=O)[C@H](CC(C(=O)O)C(=O)O)NC(=O)[C@H](CCC(N)=O)NC(=O)[C@H](CC(N)=O)NC(=O)[C@H](CC(C(=O)O)C(=O)O)NC(=O)[C@H](CCC(N)=O)NC(=O)[C@H](CC(C)C)NC(=O)[C@H](CC(C(=O)O)C(=O)O)NC(=O)[C@H](Cc1ccc(O)cc1)NC(=O)[C@H](CCC(=O)O)NC(=O)CN)C(=O)N[C@@H](CCCNC(=N)N)C(=O)N[C@@H](CC(C(=O)O)C(=O)O)C(=O)N[C@@H](CCCCN)C(=O)N[C@@H](CO)C(=O)N[C@@H](CC(N)=O)C(N)=O` [Y^3] (H-GEY[Gla]LQ[Gla]NQ[Gla]LIR[Gla]KSN-NH2; N-terminus assumed), the negative logarithm of the IC50 (pIC50) was 6.02.
As for `CC[C@H](C)[C@H](NC(=O)[C@H](CC(C)C)NC(=O)[C@H](CC(C(=O)O)C(=O)O)NC(=O)[C@H](CCC(N)=O)NC(=O)[C@H](CC(N)=O)NC(=O)[C@H](CC(C(=O)O)C(=O)O)NC(=O)[C@H](CCC(N)=O)NC(=O)[C@H](CC(C)C)NC(=O)[C@H](Cc1ccc(O)cc1)NC(=O)[C@H](CC(C(=O)O)C(=O)O)NC(=O)[C@H](CCC(=O)O)NC(=O)CN)C(=O)N[C@@H](CCCNC(=N)N)C(=O)N[C@@H](CC(C(=O)O)C(=O)O)C(=O)N[C@@H](CCCCN)C(=O)N[C@@H](CO)C(=O)N[C@@H](CC(N)=O)C(N)=O` [E^4] (H-GE[Gla]YLQ[Gla]NQ[Gla]LIR[Gla]KSN-NH2; N-terminus assumed), the negative-log IC50 (pIC50) is no more than 4.70.
Regarding `CC[C@H](C)[C@H](NC(=O)[C@H](CC(C)C)NC(=O)[C@H](Cc1ccc(O)cc1)NC(=O)[C@H](CCC(N)=O)NC(=O)[C@H](CC(N)=O)NC(=O)[C@H](C)NC(=O)[C@H](CCC(N)=O)NC(=O)[C@H](CC(C)C)NC(=O)[C@H](CC(C(=O)O)C(=O)O)NC(=O)[C@H](CC(C(=O)O)C(=O)O)NC(=O)[C@H](CCC(=O)O)NC(=O)CN)C(=O)N[C@@H](CCCNC(=N)N)C(=O)N[C@@H](CC(C(=O)O)C(=O)O)C(=O)N[C@@H](CCCCN)C(=O)N[C@@H](CO)C(=O)N[C@@H](CC(N)=O)C(N)=O` [A^7, Y^10] (H-GE[Gla][Gla]LQANQYLIR[Gla]KSN-NH2; N-terminus assumed), the negative logarithm of the IC50 (pIC50) is 7.10.
Consider `CC[C@H](C)[C@H](NC(=O)[C@H](CC(C)C)NC(=O)[C@H](C)NC(=O)[C@H](CCC(N)=O)NC(=O)[C@H](CC(N)=O)NC(=O)[C@H](C)NC(=O)[C@H](CCC(N)=O)NC(=O)[C@H](CC(C)C)NC(=O)[C@H](CC(C(=O)O)C(=O)O)NC(=O)[C@H](CC(C(=O)O)C(=O)O)NC(=O)[C@H](CCC(=O)O)NC(=O)CN)C(=O)N[C@@H](CCCNC(=N)N)C(N)=O` [(A^7,10)1-13] (H-GE[Gla][Gla]LQANQALIR-NH2; N-terminus assumed), for which the negative logarithm of the IC50 (pIC50) was 6.60.

Tested on in a further data set: not given
Particulars: Frings audiogenic, mouse, tissue homogenate.
Turning to `CC[C@H](C)[C@H](NC(=O)[C@H](CC(N)=O)NC(=O)[C@H](CCC(=O)O)NC(=O)[C@H](CCCNC(=N)N)NC(=O)[C@H](C)NC(=O)[C@H](CC(C)C)NC(=O)[C@H](CCC(=O)O)NC(=O)[C@H](C)NC(=O)[C@H](C)NC(=O)[C@H](CCSC)NC(=O)[C@H](CCCCN)NC(=O)[C@H](C)NC(=O)[C@@H](NC(=O)[C@H](CCC(=O)O)NC(=O)[C@H](CCC(=O)O)NC(=O)[C@H](CCC(=O)O)NC(=O)CN)C(C)C)C(=O)N[C@@H](C)C(=O)N[C@@H](CCCCN)C(=O)NCC(=O)N[C@H]1CSSC[C@@H](C(=O)N[C@@H](Cc2ccc(O)cc2)C(=O)N2CCC[C@H]2C(=O)O)NC(=O)[C@H](CC(N)=O)NC(=O)[C@H](C(C)C)NC(=O)[C@H](CCCCN)NC1=O` [ECon R], the T1/2 was found to be 2.4 min.

In general, pIC50 refers to the IC50 on a negative log10 scale, so that one unit is a factor of ten.
